PubChem BioAssay (NCI)
Values joined by “and” are separate entries in the source; they are usually repeats but may differ in a detail not shown here. Equal entries are not always repeated.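 Exposure lasted 48 hours, with cells grown in 96-well plates and compounds tested at five concentrations. GI50: concentration for 50% inhibition of growth. The concentration for full growth arrest is given as TGI.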

Columns and labels:
Test in all cases: NCI-60 cell line screen, 48 h
[1] = tested on: A498 renal
[2] = tested on: CAKI-1 renal
[3] = tested on: HOP-62 NSCLC
[4] = tested on: HOP-92 NSCLC
[5] = tested on: M14 melanoma
[6] = tested on: OVCAR-8 ovarian
[7] = tested on: RXF 393 renal
[8] = tested on: SNB-19 CNS
[9] = tested on: SNB-75 CNS
[10] = tested on: T-47D breast

Row | SMILES | TGI [1] | TGI [2] | TGI [3] | TGI [4] | TGI [5] | TGI [6] | TGI [7] | TGI [8] | TGI [9] | TGI [10] | GI50 [2] | GI50 [1] | GI50 [3] | GI50 [4] | GI50 [5] | GI50 [6] | GI50 [7] | GI50 [8] | GI50 [9] | GI50 [10]
1 | O=C(/C=C\c1ccccc1)N1CCc2ccccc2C1 | > 100 µM | > 100 µM | > 100 µM | > 100 µM | > 100 µM | > 100 µM | > 100 µM | > 100 µM | > 100 µM | > 100 µM | – | – | – | – | – | – | – | – | – | –
2 | CC(=C/c1ccccc1)/C=C1/NC(=S)N(/C=C2\C(=O)Oc3ccccc3C2=O)C1=O | > 100 µM | > 100 µM | > 100 µM | > 65 µM | > 100 µM | > 100 µM | > 52.4 µM | > 100 µM | > 100 µM | > 100 µM | 59700 nM | – | – | – | – | – | – | – | – | –
3 | O=C(c1ccccc1)c1c(C(F)(F)F)n([O-])c2ccc(C(F)(F)F)cc2[n+]1=O | 3.11 µM | 0.348 µM | 0.765 µM | 0.318 µM | 1.47 µM | 3.57 µM | 0.342 µM | 2.1 µM | 1.13 µM | 1.08 µM | 193 nM | 1700 nM | 347 nM | 160 nM | 619 nM | 1200 nM | 175 nM | 830 nM | 520 nM | 372 nM
4 | CCN(CC)C(=S)[S][Bi]([S]C(=S)N(CC)CC)[S]C(=S)N(CC)CC | 2.49 µM | 0.776 µM | 3.39 µM | 0.276 µM | 0.485 µM | 0.755 µM | 0.36 µM | 3.08 µM | 0.527 µM | 0.341 µM | 199 nM | 1240 nM | 1900 nM | 136 nM | 218 nM | 284 nM | 183 nM | 1710 nM | 213 nM | 122 nM
5 | CC(=O)c1nc2ccccc2n1CC(=O)c1cccc(Cl)c1 | 88.6 µM | > 20.1 µM | > 56.5 µM | > 86.2 µM | > 100 µM | > 100 µM | 0.88 µM | > 100 µM | 59.8 µM | > 100 µM | 2780 nM | 6520 nM | 1690 nM | – | 262 nM | 873 nM | 264 nM | 808 nM | 313 nM | 881 nM
6 | CC#Cc1nc(Nc2cc(C)[nH]n2)c2ccccc2n1 | 2.75 µM | 13.8 µM | 39.7 µM | 21.1 µM | 23.8 µM | 37.3 µM | 4.96 µM | 50.7 µM | 15.4 µM | 56.5 µM | 2320 nM | 3930 nM and 1080 nM | 12400 nM | 3550 nM | 4340 nM | 5050 nM | 7570 nM and 1670 nM | 19800 nM | 1480 nM | 10800 nM
7 | Cc1c([N+](=O)[O-])oc2ccc3ccccc3c12 | > 100 µM | > 100 µM | > 100 µM | > 100 µM | > 100 µM | > 100 µM | > 100 µM | > 100 µM | > 100 µM | > 100 µM | – | – | – | – | – | – | – | – | – | –
8 | CNCCN=c1ccc2c3c1c(O)c1c(O)ccc(=O)c1c3[nH]n2CCNCCO | 1.14 µM and 5.15 µM | 0.992 µM and 2.28 µM | – | 2.64 µM and 1.37 µM | 3.41 µM and 10.4 µM | 6.05 µM and 5.42 µM | 2.54 µM and 1.25 µM | – | 0.387 µM and 0.149 µM | 5.35 µM | 54 nM | 102 nM and 405 nM | – | 199 nM | 397 nM and 1190 nM | 174 nM and 366 nM | 744 nM and 173 nM | 30.8 nM and 110 nM | 29.4 nM and 77.2 nM | –
9 | N#CC1C=Cc2c(ccc3ccccc23)N1C(=O)c1ccccc1 (centres undefined) | 2.48 µM | – | > 100 µM | > 100 µM | > 100 µM | > 100 µM | – | > 100 µM | 63.8 µM | > 100 µM | 108 nM | 139 nM | 387 nM | 3100 nM | 209 nM | 461 nM | – | 524 nM | 226 nM | 103 nM
10 | O=C1OCC2=C1C(c1ccccc1)c1cc3c(cc1N2CCO)OCCO3 (centres undefined) | 4.05 µM | > 30.3 µM | > 50 µM | – | 1.66 µM | > 50 µM | – | > 16.8 µM | 0.427 µM | > 50 µM | 293 nM | 188 nM | 763 nM | – | 230 nM | 651 nM | – | 921 nM | 121 nM | 220 nM
11 | COc1ccccc1C(=O)N(C)c1ccc(Cl)c(C(=O)OC(C)C)c1 | > 100 µM | > 100 µM | – | > 100 µM | > 100 µM | > 100 µM | – | > 100 µM | > 100 µM | 85.7 µM | – | – | – | – | – | – | – | – | – | –
12 | C=CC1=C(C)C2=NC1=CC1=NC(=C(CC)/C1=C\O)C=C1N=C3C(=C1C)C(=O)[C@H](C(=O)OC)C3=C1NC(=C2)[C@@H](C)[C@@H]1CCC(=O)O | > 100 µM | > 100 µM | – | > 100 µM | > 100 µM | > 100 µM | 13.3 µM | > 100 µM | > 100 µM | > 100 µM | – | – | – | – | – | – | – | – | – | –
13 | COc1cc(NC(=O)C2=C(N3CCOCC3)/C(=C/c3ccc(Cl)cc3)CC2)cc(OC)c1OC | 27.7 µM | > 100 µM | 21.2 µM | – | > 100 µM | > 100 µM | – | 95.1 µM | 33.9 µM | > 100 µM | 23000 nM | 4970 nM | 4660 nM | – | > 100000 nM | 19500 nM | – | 28800 nM | 6240 nM | > 100000 nM
14 | O=C(O)c1cc2ccccc2c2c1C(=O)c1ccccc1-2 | – | > 100 µM | > 100 µM | > 100 µM | > 100 µM | > 100 µM | > 100 µM | > 100 µM | > 100 µM | > 100 µM | – | – | – | – | – | – | – | – | – | –
15 | COc1cc2c3c(n(C)c(=O)c2cc1OC)-c1cc2c(cc1/C3=C\CCNCCCN)OCO2 | – | 14.3 µM | 15.6 µM | 11.1 µM | 20.5 µM | 44.6 µM | 14.5 µM | 14.7 µM | > 100 µM | 15.3 µM | 3440 nM | – | 3850 nM | 1450 nM | 5320 nM | 2980 nM | 1060 nM | 1420 nM | 11400 nM | 2640 nM
